In publication PMC2787200 (Organic letters, 2008):

Molecular target: ERα (Homo sapiens, UniProt P03372)
Assay: competitive radiometric binding assay with tritiated estradiol

ERα, sequence (P03372 whole entry): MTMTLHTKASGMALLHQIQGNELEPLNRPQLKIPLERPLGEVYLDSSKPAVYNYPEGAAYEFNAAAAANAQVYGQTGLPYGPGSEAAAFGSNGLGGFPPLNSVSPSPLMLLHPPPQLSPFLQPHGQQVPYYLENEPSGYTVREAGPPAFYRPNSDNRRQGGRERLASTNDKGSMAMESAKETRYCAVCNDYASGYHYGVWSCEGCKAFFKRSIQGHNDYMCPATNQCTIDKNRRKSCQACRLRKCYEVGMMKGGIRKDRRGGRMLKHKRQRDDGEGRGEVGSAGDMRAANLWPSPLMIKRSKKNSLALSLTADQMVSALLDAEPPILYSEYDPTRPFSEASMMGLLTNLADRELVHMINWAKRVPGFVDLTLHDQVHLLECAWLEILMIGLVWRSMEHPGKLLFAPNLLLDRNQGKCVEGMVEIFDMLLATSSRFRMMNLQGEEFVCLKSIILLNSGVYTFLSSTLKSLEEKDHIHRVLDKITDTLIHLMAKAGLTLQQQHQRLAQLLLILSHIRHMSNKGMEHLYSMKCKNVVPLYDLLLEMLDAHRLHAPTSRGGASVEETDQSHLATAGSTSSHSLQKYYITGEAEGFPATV

“Cyclofenil-conjugated SNAPFL [compound 2]” gave a Ki of roughly 6 nM.
